This is an account of results in ChEMBL document CHEMBL1201862, “PubChem BioAssay data set” (2004).

Some test systems named below: SN12C; HT-29; SNB-75; OVCAR-4; SR; HL-60; RXF 393; OVCAR-8; SW-620; HCC 2998; NCI-H23; K562; OVCAR-5; A498; UACC-257; MDA-N; CAKI-1; ACHN; DMS-114; UACC-62.
What all share (assay): inhibition of tumour cell growth, NCI panel, 48 h

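These data come from cells grown in 96-well plates and exposed to compound for 48 hours at five concentrations. GI50: concentration for 50% inhibition of growth.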 Calls of active or inactive are those of the source. Rule as the data show it: active = GI50 up to about 1.1 µM and inactive = higher. Some results are limits rather than exact numbers.

On to `O=C1c2ccccc2C(=O)c2c1oc1cc(O)c(Cl)cc21`, for which the GI50 in the assay with SN12C was 7.98 µM (inactive); in the assay on HT-29, 1.95 µM (inactive); with SNB-75, 2.88 µM (inactive); with OVCAR-4, 8.18 µM (inactive); in the assay on SR, 11.8 µM (inactive); in the assay with HL-60, 6.92 µM (inactive). Also, the GI50 in the assay with RXF 393 is 9.46 µM (inactive); in the assay with OVCAR-8, 7.38 µM (inactive); with SW-620 it was 8.45 µM (inactive); with HCC 2998 it was 4.62 µM (inactive); with NCI-H23, 0.519 µM (active); in the assay with K562, 13.5 µM (inactive). In addition, the GI50 was 11.2 µM (inactive) in the assay on OVCAR-5; 19.7 µM (inactive) in the assay with A498; 2.33 µM (inactive) with UACC-257; 1.75 µM (inactive) with MDA-N; 16.7 µM (inactive) in the assay on CAKI-1; 7 µM (inactive) with ACHN. For the same compound, the GI50 was 2.23 µM (inactive) in the assay on DMS-114 and 1.93 µM (inactive) with UACC-62.

With `O=C1/C(=C/c2ccccc2)CN(C(=O)OCc2ccccc2)C/C1=C\c1ccccc1`, the GI50 with SN12C is 13.8 µM (inactive); in the assay on HT-29, 7.69 µM (inactive); in the assay with SNB-75, > 31.6 µM (inactive); in the assay with OVCAR-4 it was 11.6 µM (inactive); in the assay with SR, 1.53 µM (inactive); in the assay on HL-60, 1.79 µM (inactive). The GI50 in the assay with RXF 393 is 13.4 µM (inactive); with OVCAR-8, 13.1 µM (inactive); with SW-620, 1.81 µM (inactive); in the assay on HCC 2998, 7.06 µM (inactive); in the assay on NCI-H23, 15.6 µM (inactive); in the assay with K562 it was 1.88 µM (inactive). In addition, the GI50 was 17.4 µM (inactive) with OVCAR-5; 27.4 µM (inactive) in the assay on A498; 16 µM (inactive) with UACC-257; 3.06 µM (inactive) in the assay on MDA-N; 18.1 µM (inactive) in the assay on CAKI-1; 12.5 µM (inactive) in the assay on ACHN. The GI50 was 11.2 µM (inactive) in the assay on DMS-114 and 12.2 µM (inactive) in the assay on UACC-62.

In the case of `COc1ccc(Br)c2c1CC(C(=O)O)CC2` (stereo not given), the GI50 is > 100 µM (inactive) with SN12C; > 100 µM (inactive) in the assay on HT-29; > 100 µM (inactive) in the assay with SNB-75; > 100 µM (inactive) with OVCAR-4; > 54 µM (inactive) with SR; > 100 µM (inactive) with HL-60. The GI50 in the assay on RXF 393, in the assay with OVCAR-8, with SW-620, in the assay on HCC 2998, with NCI-H23 and with K562 was > 100 µM (inactive) in each case. The GI50 with OVCAR-5, in the assay with A498, in the assay with UACC-257, with MDA-N, in the assay on CAKI-1 and in the assay on ACHN was > 100 µM (inactive) throughout. The GI50 with DMS-114 and with UACC-62 was > 100 µM (inactive) in each case.
